Like-named read-outs stand apart in the source and are kept apart here.
What was measured:
[1] = test system: Junin virus; set-up: species or system guinea pigs; details: guinea pig, in vivo
[2] = test system: Lassa (Josiah) virus; set-up: species or system guinea pigs; details: guinea pig, in vivo
[3] = test system: rJunin (rRomero) virus; set-up: species or system guinea pigs; details: guinea pig, in vivo
[4] = Pharmacokinetics and tolerability in guinea pigs (Example 1); details: 50 mg/kg PO, blood by vena cava bleed

In the case of `COc1ccc(C(CC(N)=O)N2Cc3ccccc3C2=O)cc1OC` (stereo not drawn) [Compound A, 3-(3,4-dimethoxy-phenyl)-3-(1-oxo-1,3-dihydro-isoindol-2-yl)-propionamide], the average weight loss [1] is reported as 0.69%, the survival rate [1] is reported as 50% and the “temperature findings (febrile, hypothermic)” value (from here on “temperature findings”) [1] is reported as “All animals that died were febrile between day +7 and +10 and two were hypothermic on day +14”. The “(highest) average weight loss” value [2] was 12.17%, the “animals surviving to the end of study” value [2] was “None of the animals survived” and the “temperature findings” value [2] was “All animals were febrile between day +7 and +19 and two were hypothermic before death”. For the same molecule, the “(highest) average weight loss” value ([2]; po, 50 mg/kg) was 5.36%, the survival rate ([2]; po, 50 mg/kg) was 44% and the “temperature findings” value ([2]; po, 50 mg/kg) was “All animals, including the survivors, were febrile between day +7 and +17 and none of the animals were hypothermic before death”. For the same molecule, the “(highest) average weight loss” value [3] was 1.33%, the survival rate [3] was 33% and the “temperature findings” value [3] was “All animals that died were febrile between day +7 and +15 and four out of six were hypothermic before death”. For the same molecule, the “(highest) average weight loss” value ([3]; po, 50 mg/kg) was 5.89%, the survival rate ([3]; po, 50 mg/kg) was 22% and the “temperature findings” value ([3]; po, 50 mg/kg) was “All animals that died were febrile between day +5 and +13 and three out of seven were hypothermic before death”. For the same molecule, the “adequacy of the dose according to the pharmacokinetic results” value [4] was “within range”.

With `CCOc1cc(C(CS(C)(=O)=O)N2Cc3cccc(NC(=O)C4CC4)c3C2=O)ccc1OC` (stereo not drawn) [Compound B, N-(2-(1-(3-ethoxy-4-methoxyphenyl)-2-(methylsulfonyl)ethyl)-3-oxoisoindolin-4-yl)cyclopropanecarboxamide] the average weight loss [1] was 4.4%, the survival rate [1] was 17% and the “temperature findings” value [1] was “Most of the animals in this group were febrile starting at day +7 but none were recorded as hypothermic”. For the same molecule, the “(highest) average weight loss” value [2] was 13.08%, the survival rate [2] was 13% and the “temperature findings” value [2] was “All of the animals in this group except the survivor were febrile starting day +8 thru +16 and only one was recorded as hypothermic before death”. For the same molecule, the “(highest) average weight loss” value [3] was 12.41%, the survival rate [3] was 11% and the “temperature findings” value [3] was “All of the animals in this group except the survivor were febrile starting day +7 thru +11 and four were recorded as hypothermic before death”. For the same molecule, the “adequacy of the dose according to the pharmacokinetic results” value [4] was “needed to be increased”.

With `NC(=O)c1ncn([C@@H]2O[C@H](CO)[C@@H](O)[C@H]2O)n1` [Ribavirin, reference compound] the “animals surviving to the end of study” value [1] was “all 3 animals survived”, the “temperature findings” value [1] was “Only 1 animal was febrile on day +27” and the “weight loss up to” value [1] was “up to 5.2%”. For the same molecule, the “animals surviving to the end of study” value [2] was “only one animal survived”, the “average group weight loss up to” value [2] was “up to 15.39%” and the “temperature findings” value [2] was “Only one of the two animals that died was febrile once on day +17”. The “animals surviving to the end of study” value [3] was “all 3 animals survived”, the “temperature findings” value [3] was “Only one animal was intermittently febrile between days +16 and +27” and the “weight loss of the intermittently febrile animal” value [3] was 17.67%. For the same molecule, the “weight loss up to” value [3] was “up to 3.09%”.

Source: patent publication US20160289188A1, “COMPOSITIONS AND METHODS FOR THE TREATMENT OF VIRAL DISEASES WITH PDE4 MODULATORS” (priority 2013, published 2016)
